Source: patent publication US5208223A, “Phosphocholine derivative inhibitors of phospholipase A2” (American Cyanamid Company, priority 1992, dated 1993)
Several values for one entry are separate records, joined by “and”; a condition that tells them apart may be missing. Equal values may be shown once. Where a name gives a salt, the structure may show the parent alone. Read-outs that look alike come from different tables or passages of the source.

Experiments:
Format in all cases: biochemical
porcine pancreatic PLA2 [1] = molecular target: T1, porcine pancreatic PLA2 (Sus scrofa, UniProt P00592); assay: MHPLA2 assay: in vitro porcine pancreatic phospholipase A2, mixed micelle design, [s]=10 μm
T1 construct: purchased Sigma
T1 sequence (P00592 23-146): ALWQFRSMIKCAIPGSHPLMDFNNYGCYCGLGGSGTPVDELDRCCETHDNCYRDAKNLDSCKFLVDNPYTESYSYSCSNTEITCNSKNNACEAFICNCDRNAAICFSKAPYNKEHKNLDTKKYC
Experimental: (§1) Phospholipase A2 activity was measured by a radiochemical assay in which labeled synthetic phosphatidylcholine substrate is converted by porcine pancreatic PLA2 to free radiolabeled arachidonate and lyso PC. Radiolabeled arachidonate is extracted from the reaction mixture and separated from unreacted substrate by column chromatography or TLC. Radioactivity (cpm) in samples is quantitated by liquid scintillation counting. Specific details are as follows:
(§2) Labeled substrate(1-stearyl-2-^3 H-arachidonylphosphatidylcholine; Amersham, sp. act. 84 (uCi/mmole, 0.025 to 0.2 uCi/assay tube and unlabeled substrates (Avanti), in sufficient quantity to give 20,000 cpm to 50,000 cpm and 10 μM to 1,000 μM final concentration/assay tube are dried under a stream of nitrogen. The PLA2 and mPLA2 assays utilized a […] substrate concentration. The mHPLA2 and HPLA2 assays (vida infra) utilized a 10 μM substrate concentration and the SmPLA2 assay utilized a substrate concentration ranging from 100 to 1000 μm. The substrate is then redissolved in 0.1M tris-HCl buffer, pH 9.0 containing 10 mM CaCl2 and 10 mM Na taurocholate detergent. The mixture is sonicated in a Kontes Sonifier to yield a homogeneous dispersion. The "mixed" micellar substrate is clear. An aliquot is reserved for a cpm count (total substrate). The total reaction volume is 500 μL; siliconized glassware or plasticware is used throughout. Enzyme (Sigma, sp. act.>690 U/mg protein and preferably 900 U/mg protein) is diluted 1:750 or 1:1000 in 0.1M tris-HCl buffer, pH 9.0 (without Ca^++ and detergent). Enzyme dilution depends on substrate concentration and required enzyme concentration.
(§3) The substrate in buffer is kept on ice until the reaction is started. The reaction is started by adding 10 μL of diluted enzyme solution to 490 μL of micellar substrate solution. Samples are incubated in a 37° C. water bath for 15 minutes with gentle mixing. The reaction is terminated by the addition of 100 μL of 1M fresh trichloroacetic acid (TCA) solution and chilling the tubes on ice for 30 minutes.
(§4) Samples (600 μL) are extracted with 3 ml CHCl3 /MeOH (2:1) for thin layer chromatography or in hexane/ether (9:1) for column chromatography. The phases are separated by gentle centrifugation at 700 rpm×5'. The organic phase is recovered.
(§5) Labeled arachidonate extracted with CHCl3 /MeOH is separated on silica gel G TLC plates (Analtech). Twenty μL of a 2 mg/ml internal standard solution of arachidonic acid (Sigma) is combined with 2-3 ml of the organic phase. The entire mixture is dried under nitrogen and redissolved in 50 μL of CHCl3 /MeOH (2:1). A 20 μL sample is counted in 10 ml of Beckman Redi-solv HP and spotted on silica gel G plates. The solvent system used to develop the plate is CHCl3 /MeOH/13.5N NH3 /H2 O (70:30:4:1). Plates are developed in a glass chamber for 1-11/2 hours, air dried, and the spots visualized in an iodine vapor chamber. Standards of phosphatidylcholine, lyso PC, and arachidonic acid (Sigma) are made as 2 mg/ml stocks in CHCl3 /MeOH (2:1) and spotted on plates. Spots corresponding to arachidonate and phospholipid are scraped and counted in 10 ml Beckman Redi-Solv HP scintillation fluid.
(§6) Samples are extracted with hexane/ether and the upper organic phase recovered. An aliquot is applied to a Silicar CC4 (Malincrodt) column. Columns are prepared using 1 ml of a 1:1 slurry of silicar CC4 in hexane/ether in a Pasteur pipet (approx. 2 cm height). Columns are rinsed with 500 μL of hexane/ether before adding the sample (300-600 μL) to the column. Columns are eluted with a total of 6 ml of hexane/ether. The 6 ml sample is counted in 10 ml of Beckman Redi-Solv HP scintillation fluid.
(§7) or the phospholipase A2 assay, compounds are prepared as 1 mg/ml stock solutions in MeOH and diluted appropriately in PBS. […]

porcine pancreatic PLA2 [2] = molecular target: T1, porcine pancreatic PLA2; assay: MPLA2 assay: in vitro porcine pancreatic phospholipase A2, mixed micelle design, substrate 2 nM; conditions: for inhibition at 10 µg/mL: dose 10 μ/ml; for inhibition at 20 µg/mL: dose 20 μ/ml; for IC50 / % Inh.: subs. con. 2
Experimental: as §1, §2, §3, §4, §5, §6, §7

porcine pancreatic PLA2 [3] = molecular target: T1, porcine pancreatic PLA2; assay: PLA2 assay: in vitro porcine pancreatic phospholipase A2, preincubation of drug+enzyme, substrate 2 nM; conditions: preincubation, subs. con. 2; for inhibition at 25 µg/mL: dose 25 μ/ml; for inhibition at 50 µg/mL: dose 50 μ/ml
Experimental: as §1, §2, §3, §4, §5, §6
or the phospholipase A2 assay, compounds are prepared as 1 mg/ml stock solutions in MeOH and diluted appropriately in PBS.

[4] = dose 10 μ/ml, subs. con. 10, read-out: % Inh.
[5] = dose 25 μ/ml, subs. con. 10, read-out: % Inh.
[6] = dose 10 μ/ml, read-out: % Inh. Avg.
[7] = dose 25 μ/ml, subs. con. 10, read-out: % Inh. Avg.
[8] = read-out: IC50 Avg. (converted)

SMILES	inhibition at 10 µg/mL (porcine pancreatic PLA2 [1]; [4])	inhibition at 10 µg/mL (porcine pancreatic PLA2 [2]; subs. con. 2, read-out: % Inh.)	inhibition at 20 µg/mL (porcine pancreatic PLA2 [2]; subs. con. 2, read-out: % Inh.)	IC50 (porcine pancreatic PLA2 [2])	inhibition at 10 µg/mL (porcine pancreatic PLA2 [3]; dose 10 μ/ml, read-out: % Inh.)	inhibition at 20 µg/mL (porcine pancreatic PLA2 [3]; dose 20 μ/ml, read-out: % Inh.)	IC50 (porcine pancreatic PLA2 [3]; read-out: IC50 (converted))	inhibition at 25 µg/mL (porcine pancreatic PLA2 [1]; [7])	other results
CCCCCCCCCCCCCCCCOCC(COP(=O)([O-])OCC[N+](C)(C)C)CP(=O)(OCC)OCC (stereo not drawn)	18%	36%	60%	27.3 µM	71%	81%	8.12 µM		inhibition at 20 µg/mL (porcine pancreatic PLA2 [1]; dose 20 μ/ml, subs. con. 10): 44%; inhibition at 25 µg/mL (porcine pancreatic PLA2 [1]; [5]): 45%; IC50 (porcine pancreatic PLA2 [1]; subs. con. 10, read-out: IC50 (converted)): 91.3 µM and 265 µM; inhibition at 10 µg/mL (porcine pancreatic PLA2 [3]; [6]): 74%
CCCCCCCCCCCCCCCCOCC(COP(=O)([O-])OCC[N+](C)(C)C)OP(=O)(OC)OCCCCC (single isomer, unassigned) [3,5,8,10-Tetraoxa-4,9-diphosphapentadecan-1-aminium, 7-[(hex] [3,5,8,10-Tetraoxa-4,9-diphosphapentadecan-1-aminium, 7-[(hexadecyloxy)methyl]-4-hydroxy-9-methoxy-N,N,N-trimethyl-, hydroxide, 4-(inner salt),4,9-dioxide, more polar isomer]									% Inh. (porcine pancreatic PLA2 [2]; dose 25 μ/ml): STIM; % Inh. (porcine pancreatic PLA2 [3]; dose 10 μ/ml): 82%; % Inh. (porcine pancreatic PLA2 [3]; dose 20 μ/ml): 89%
CCCCCCCCCCCCCCCCOCC(COP(=O)([O-])OCC[N+](C)(C)C)OP(=O)(OC)OCCCCC (single isomer, unassigned) [3,5,8,10-Tetraoxa-4,9-diphosphapentadecan-1-aminium, 7-[(hexadecyloxy)methyl]-4-hydroxy-9-methoxy-N,N,N-trimethyl-, hydroxide, 4-(inner salt),4,9-dioxide, more polar isomer]	0%						3.87 µM		
CCCCCOCC(COP(=O)([O-])OCC[N+](C)(C)C)OP(=O)(O)OCCCCC (single isomer, unassigned; less polar) [3,5,8,10-Tetraoxa-4,9-diphosphapentadecan-1-aminium, 4,9-dihydroxy-N,N,N-trimethyl-7-[(pentyloxy)methyl]-, hydroxide, 4-(inner salt), 4,9-dioxide, less polar isomer]					20%	17%			inhibition at 25 µg/mL (porcine pancreatic PLA2 [1]; [5]): 12%; % Inh. (porcine pancreatic PLA2 [2]; dose 25 μ/ml): STIM
CCCCCCCCCCCCCCCCOCC(COP(=O)([O-])OCC[N+](C)(C)C)OCC(=O)O (stereo not drawn) [2,5,7-Trioxa-6-phosphanonan-9-aminium, 1-carboxy-3-[(hexadecyloxy)methyl]-6-hydroxy-N,N,N-trimethyl-, hydroxide, inner salt, 6-oxide]	6%					44%		30%	
CCCCCCCCCCCCCCCCOCC(COP(=O)([O-])OCC[N+](C)(C)C)OP(=O)(O)OCCCCCCCCCCCCCCCC (stereo not drawn) [3,5,8,10-Tetraoxa-4,9-diphosphahexacosan-1-aminium, 7-[(hexa] [3,5,8,10-Tetraoxa-4,9-diphosphahexacosan-1-aminium, 7-[(hexadecyloxy)methyl]-4,9-dihydroxy-N,N,N-trimethyl-, hydroxide, 4-inner salt), 4,9-dioxide]									% Inh. (porcine pancreatic PLA2 [1]; dose 10 μ/ml, subs. con. 10): STIM; % Inh. (porcine pancreatic PLA2 [1]; dose 25 μ/ml, subs. con. 10): STIM
CCCCCCCCCCCCCCCCOC[C@@H](COP(=O)([O-])OCC[N+](C)(C)C)OP(=O)(O)OCCCCCCCCCCCCCCCC [3,5,8,10-Tetraoxa-4,9-diphosphahexacosan-1-aminium, 7-[(hexadecyloxy)methyl]-4,9-dihydroxy-N,N,N-trimethyl-, hydroxide, 4-(inner salt), 4,9-dioxide, (7S)]									% Inh. (porcine pancreatic PLA2 [1]; dose 10 μ/ml, subs. con. 10): STIM; % Inh. (porcine pancreatic PLA2 [1]; dose 25 μ/ml, subs. con. 10): STIM; inhibition at 10 µg/mL (porcine pancreatic PLA2 [3]; [6]): 17%; inhibition at 20 µg/mL (porcine pancreatic PLA2 [3]; dose 20 μ/ml, read-out: % Inh. Avg.): 16%; inhibition at 25 µg/mL (porcine pancreatic PLA2 [3]; read-out: % Inh.): 8%
CCCCCCCCCCCCCCCCOCC(COP(=O)([O-])OCC[N+](C)(C)C)OP(=O)(OC)OCCCCCCCCCCCCCCCC (stereo not drawn) [3,5,8,10-Tetraoxa-4,9-diphosphahexacosan-1-aminium, 7-[(hexadecyloxy)methyl]-4-hydroxy-9-methoxy-N,N,N-trimethyl-, hydroxide, inner salt, 4,9-dioxide]							4 µM and 3.5 µM	62%	IC50 (porcine pancreatic PLA2 [3]; [8]): 3.75 µM
CCCCCCCCCCCCCCCCOCC(COP(=O)([O-])OCC[N+](C)(C)C)OP(=O)(OC)OCCCCCCCCCCCCCCCC (stereo not drawn) [3,5,8,10-Tetraoxa-4,9-diphosphahexacosan-1-aminium, 7-[(hexadecyloxy)methyl]-4-hydroxy-9-methoxy-N,N,N-trimethyl-hydroxide, inner salt, 4,9-dioxide]	0%				61%	65%	7.5 µM and 5.62 µM and 7.25 µM		inhibition at 25 µg/mL (porcine pancreatic PLA2 [3]; read-out: % Inh.): 71%; inhibition at 25 µg/mL (porcine pancreatic PLA2 [3]; read-out: % Inh. Avg.): 77%; inhibition at 50 µg/mL (porcine pancreatic PLA2 [3]; read-out: % Inh.): 73% and 88%; inhibition at 50 µg/mL (porcine pancreatic PLA2 [3]; read-out: % Inh. Avg.): 80%; IC50 (porcine pancreatic PLA2 [3]; [8]): 6.75 µM
CCCCCCCCCCCCCCCCOCC(COP(=O)([O-])OCC[N+](C)(C)C)OC(=O)CBr (stereo not drawn) [3,5,9-Trioxa-4-phosphapentacosan-1-aminium, 7-[(bromoacetyl)oxy]-4-hydroxy-N,N,N-trimethyl-, hydroxide, inner salt, 4-oxide]	35%	52%	85%	8.13 µM				50%	inhibition at 10 µg/mL (porcine pancreatic PLA2 [1]; dose 10 μ/ml, subs. con. 10, read-out: % Inh. Avg.): 32%; inhibition at 25 µg/mL (porcine pancreatic PLA2 [1]; [5]): 78%; IC50 (porcine pancreatic PLA2 [1]; subs. con. 10, read-out: IC50 Avg. (converted)): 83 µM
CCCCCCCCCCCCCCCCOCC(COP(=O)([O-])OCC[N+](C)(C)C)CC1CO1 (stereo not drawn) [4-Hydroxy-N,N,N-trimethyl-7-(oxiranylmethyl)-3,5,9-trioxa-4-phosphapentacosan-1-aminium, hydroxide, inner salt, 4-oxide]					71%	88%	4.6 µM		inhibition at 25 µg/mL (porcine pancreatic PLA2 [2]; dose 25 μ/ml, subs. con. 2, read-out: % Inh.): 85%; inhibition at 10 µg/mL (porcine pancreatic PLA2 [3]; [6]): 74%
CCCCCCCCCCCCCCCCOCC(O)(COP(=O)([O-])OCC[N+](C)(C)C)CC(N)CC (stereo not drawn) [7-(2-Aminobutyl)-4,7-dihydroxy-N,N,N-trimethyl-3,5,9-trioxa-4-phosphapentacosan-1-aminium, hydroxide, inner salt, 4-oxide]		25%	61%	34.7 µM	89%	94%	2.35 µM		
CCCCCCCCCCCCCCCCOCC(COP(=O)([O-])OCC[N+](C)(C)C)OC(=O)CCl (stereo not drawn) [7-[(Chloroacetyl)oxy]-4-hydroxy-N,N,N-trimethyl-3,5,9-trioxa-4-phosphapentacosan-1-aminium, hydroxide, inner salt, 4-oxide]	27%	46%	72%	17.4 µM				3%	
